Assays:
Type in all cases: in vivo
Scirpus juncoides = experiment: Test Example 1: herbicidal activity, application before weed generation in submerged conditions (symbol B); conditions: application herbicide amount 320 g/ha
Outline: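 Greenhouse growth at 25–30 °C lasted 3 weeks after treatment, when each weed was graded 0–5 by herbicidal ratio. Treatment was a diluted emulsion applied to the water surface of 4 cm-submerged alluvial soil on the sowing day.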

Setaria viridis [1] = experiment: Test Example 4: herbicidal effect by soil treatment (symbol G); conditions: application herbicide amount 320 g/ha
Outline: (§1)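 Seeds were sown in sterilized diluvial soil, covered with about 1.5 cm of soil, and the soil surface was sprayed with a water-diluted emulsion of the compound at a predetermined rate. Plants grew in a greenhouse at 25° C. to 30° C.; effects were scored visually 3 weeks after application.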

Avena fatua = experiment: Test Example 4: herbicidal effect by soil treatment (symbol I); conditions: application herbicide amount 320 g/ha
Outline: as §1

Alopecurus myosuroides [2] = experiment: Test Example 4: herbicidal effect by soil treatment (symbol J); conditions: application herbicide amount 320 g/ha
Outline: as §1

Lolium multiflorum Lam. = experiment: Test Example 4: herbicidal effect by soil treatment (symbol K); conditions: application herbicide amount 320 g/ha
Outline: as §1

Abutilon theophrasti = experiment: Test Example 4: herbicidal effect by soil treatment (symbol M); conditions: application herbicide amount 320 g/ha
Outline: as §1

Amaranthus retroflexus [3] = experiment: Test Example 4: herbicidal effect by soil treatment (symbol N); conditions: application herbicide amount 320 g/ha
Outline: as §1

Stellaria media = experiment: Test Example 4: herbicidal effect by soil treatment (symbol P); conditions: application herbicide amount 320 g/ha
Outline: as §1

Galium spurium [4] = experiment: Test Example 4: herbicidal effect by soil treatment (symbol Q); conditions: application herbicide amount 320 g/ha
Outline: as §1

corn = experiment: Test Example 4: effect on crop by soil treatment (symbol c); conditions: application herbicide amount 320 g/ha
Outline: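 Crop seed is sown in spots together with several weed species in a box of sterilized diluvial soil. It is covered by about 1.5 cm of soil and kept in a greenhouse held between 25° C. and 30° C.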

soybean [5] = experiment: Test Example 4: effect on crop by soil treatment (symbol d); conditions: application herbicide amount 320 g/ha
Outline: (§2)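 Sterilized diluvial soil, spot sowing, ~1.5 cm soil cover; greenhouse 25–30° C.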

rice = experiment: Test Example 4: effect on crop by soil treatment (symbol b); conditions: application herbicide amount 320 g/ha
Outline: as §2

wheat [6] = experiment: Test Example 4: effect on crop by soil treatment (symbol e); conditions: application herbicide amount 320 g/ha
Outline: as §2

Digitaria ciliaris = experiment: Test Example 5: herbicidal effect by foliage application, plastic box (symbol F); conditions: 320 g/ha, 3 weeks after application
Outline: (§3)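 Emulsion formulation, diluted with water to the intended rate, was applied uniformly to leaves by small sprayer. Recipients were 14-day greenhouse-grown seedlings (25° C. to 30° C.). Assessment followed at 3 weeks.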

Setaria viridis [7] = experiment: Test Example 5: herbicidal effect by foliage application, plastic box (symbol G); conditions: 320 g/ha, 3 weeks after application
Outline: as §3

[8] = tested on: Echinochloa crus-galli var. crus-galli; experiment: Test Example 5: herbicidal effect by foliage application, plastic box (symbol H); conditions: 320 g/ha, 3 weeks after application
Outline: as §3

Alopecurus myosuroides [9] = experiment: Test Example 5: herbicidal effect by foliage application, plastic box (symbol J); conditions: 320 g/ha, 3 weeks after application
Outline: as §3

Amaranthus retroflexus [10] = experiment: Test Example 5: herbicidal effect by foliage application, plastic box (symbol N); conditions: 320 g/ha, 3 weeks after application
Outline: as §3

Galium spurium [11] = experiment: Test Example 5: herbicidal effect by foliage application, plastic box (symbol Q); conditions: 320 g/ha, 3 weeks after application
Outline: as §3

soybean [12] = experiment: Test Example 5: effect on crop by foliage application, plastic box (symbol d); conditions: 320 g/ha, 3 weeks after application
Outline: (§4)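 Diluvial soil, sterilized and boxed (21 × 13 × 7 cm), received spot-sown seed covered by about 1.5 cm soil; plants were then greenhouse-grown at 25–30° C.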

rice plant = experiment: Test Example 5: effect on crop by foliage application, plastic box (symbol b); conditions: 320 g/ha, 3 weeks after application
Outline: as §4

wheat [13] = experiment: Test Example 5: effect on crop by foliage application, plastic box (symbol e); conditions: 320 g/ha, 3 weeks after application
Outline: as §4

Row | Structure (SMILES) | Herbicidal effect grade, B: Scirpus juncoides (Scirpus juncoides) | Herbicidal effect grade, G: Setaria viridis (Setaria viridis [1]) | Herbicidal effect grade, I: Avena fatua (Avena fatua) | Herbicidal effect grade, J: Alopecurus myosuroides (Alopecurus myosuroides [2]) | Herbicidal effect grade, K: Lolium multiflorum Lam. (Lolium multiflorum Lam.) | Herbicidal effect grade, M: Abutilon theophrasti (Abutilon theophrasti) | Herbicidal effect grade, N: Amaranthus retroflexus (Amaranthus retroflexus [3]) | Herbicidal effect grade, P: Stellaria media (Stellaria media) | Herbicidal effect grade, Q: Galium spurium (Galium spurium [4]) | Effect on crop grade, c: corn (corn) | Effect on crop grade, d: soybean (soybean [5]) | Effect on crop grade, b: directly sowed rice plant (rice) | Effect on crop grade, e: wheat (wheat [6]) | F: Digitaria ciliaris, herbicidal effect (criteria of Test Example 1) (Digitaria ciliaris) | G: Setaria viridis, herbicidal effect (criteria of Test Example 1) (Setaria viridis [7]) | H: Echinochloa crus-galli var. crus-galli, herbicidal effect (criteria of Test Example 1) [8] | J: Alopecurus myosuroides, herbicidal effect (criteria of Test Example 1) (Alopecurus myosuroides [9]) | N: Amaranthus retroflexus, herbicidal effect (criteria of Test Example 1) (Amaranthus retroflexus [10]) | Q: Galium spurium, herbicidal effect (criteria of Test Example 1) (Galium spurium [11]) | d: soybean, effect on crop (criteria of Test Example 1) (soybean [12]) | also measured
1 | CON=C(C)CC1CC(O)=C(c2c(F)cc(C)cc2OC)C1=O (stereo not drawn) [6-108] | 3 (Herbicidal ratio of 40% or higher and lower than 70%) | 4 (Herbicidal ratio of 70% or higher and lower than 90%) | 3 (Herbicidal ratio of 40% or higher and lower than 70%) | 3 (Herbicidal ratio of 40% or higher and lower than 70%) | 5 (Herbicidal ratio of 90% or more (almost completely withered)) | 5 (Herbicidal ratio of 90% or more (almost completely withered)) | 4 (Herbicidal ratio of 70% or higher and lower than 90%) | 3 (Herbicidal ratio of 40% or higher and lower than 70%) | 3 (Herbicidal ratio of 40% or higher and lower than 70%) | 1 (Herbicidal ratio of 5% or higher and lower than 20%) | 0 (Herbicidal ratio of 5% or lower (almost no effect)) | 5 (Herbicidal ratio of 90% or more (almost completely withered)) | 3 (Herbicidal ratio of 40% or higher and lower than 70%) | 5 (Herbicidal ratio of 90% or more (almost completely withered)) | 5 (Herbicidal ratio of 90% or more (almost completely withered)) | 5 (Herbicidal ratio of 90% or more (almost completely withered)) | 5 (Herbicidal ratio of 90% or more (almost completely withered)) | 5 (Herbicidal ratio of 90% or more (almost completely withered)) | 3 (Herbicidal ratio of 40% or higher and lower than 70%) | 3 (Herbicidal ratio of 40% or higher and lower than 70%) | b: directly sowed rice plant, effect on crop (criteria of Test Example 1) (rice plant): 5 (Herbicidal ratio of 90% or more (almost completely withered)); e: wheat, effect on crop (criteria of Test Example 1) (wheat [13]): 3 (Herbicidal ratio of 40% or higher and lower than 70%)
2 | CON=C(C)CC1CC(OC(=O)N2CCCC2)=C(c2c(C)cc(C)cc2OC)C1=O (stereo not drawn) [6-110] | 3 (Herbicidal ratio of 40% or higher and lower than 70%) | 0 (Herbicidal ratio of 5% or lower (almost no effect)) | 0 (Herbicidal ratio of 5% or lower (almost no effect)) | 3 (Herbicidal ratio of 40% or higher and lower than 70%) | 3 (Herbicidal ratio of 40% or higher and lower than 70%) | 0 (Herbicidal ratio of 5% or lower (almost no effect)) | 0 (Herbicidal ratio of 5% or lower (almost no effect)) | 0 (Herbicidal ratio of 5% or lower (almost no effect)) | 0 (Herbicidal ratio of 5% or lower (almost no effect)) | 0 (Herbicidal ratio of 5% or lower (almost no effect)) | 0 (Herbicidal ratio of 5% or lower (almost no effect)) | 0 (Herbicidal ratio of 5% or lower (almost no effect)) | 0 (Herbicidal ratio of 5% or lower (almost no effect)) | 5 (Herbicidal ratio of 90% or more (almost completely withered)) | 5 (Herbicidal ratio of 90% or more (almost completely withered)) | 5 (Herbicidal ratio of 90% or more (almost completely withered)) | 5 (Herbicidal ratio of 90% or more (almost completely withered)) | 0 (Herbicidal ratio of 5% or lower (almost no effect)) | 3 (Herbicidal ratio of 40% or higher and lower than 70%) | 2 (Herbicidal ratio of 20% or higher and lower than 40%) | b: directly sowed rice plant, effect on crop (criteria of Test Example 1) (rice plant): 5 (Herbicidal ratio of 90% or more (almost completely withered)); e: wheat, effect on crop (criteria of Test Example 1) (wheat [13]): 4 (Herbicidal ratio of 70% or higher and lower than 90%)
3 | CON=C(C)CC1CC(OC(=O)N2CCCCC2)=C(c2c(C)cc(C)cc2OC)C1=O (stereo not drawn) [6-111] | 5 (Herbicidal ratio of 90% or more (almost completely withered)) | 0 (Herbicidal ratio of 5% or lower (almost no effect)) | 0 (Herbicidal ratio of 5% or lower (almost no effect)) | 5 (Herbicidal ratio of 90% or more (almost completely withered)) | 5 (Herbicidal ratio of 90% or more (almost completely withered)) | 0 (Herbicidal ratio of 5% or lower (almost no effect)) | 0 (Herbicidal ratio of 5% or lower (almost no effect)) | 0 (Herbicidal ratio of 5% or lower (almost no effect)) | 0 (Herbicidal ratio of 5% or lower (almost no effect)) | 0 (Herbicidal ratio of 5% or lower (almost no effect)) | 0 (Herbicidal ratio of 5% or lower (almost no effect)) | 1 (Herbicidal ratio of 5% or higher and lower than 20%) | 0 (Herbicidal ratio of 5% or lower (almost no effect)) | 5 (Herbicidal ratio of 90% or more (almost completely withered)) | 5 (Herbicidal ratio of 90% or more (almost completely withered)) | 5 (Herbicidal ratio of 90% or more (almost completely withered)) | 5 (Herbicidal ratio of 90% or more (almost completely withered)) | 2 (Herbicidal ratio of 20% or higher and lower than 40%) | 0 (Herbicidal ratio of 5% or lower (almost no effect)) | 1 (Herbicidal ratio of 5% or higher and lower than 20%) | b: directly sowed rice plant, effect on crop (criteria of Test Example 1) (rice plant): 5 (Herbicidal ratio of 90% or more (almost completely withered)); e: wheat, effect on crop (criteria of Test Example 1) (wheat [13]): 4 (Herbicidal ratio of 70% or higher and lower than 90%)
